Assay results: ChEMBL document CHEMBL5104100, “Synthesis and Preclinical Characterization of LY3154885, a Human Dopamine D1 Receptor Positive Allosteric Modulator with an Improved Nonclinical Drug-Drug Interaction Risk Profile” (J Med Chem, 2022)
Converted amounts (≈) assume the structure as drawn.

Assays:
Cytochrome P450 = test: Drug metabolism in human hepatocytes assessed as fraction of Cyp mediated oxidative metabolism in presence of NADPH; format: ADME, cell-based, Hepatocyte
CYP3A4 [1] = target: T1, CYP3A4 (Homo sapiens, UniProt P08684); test: Induction of CYP3A4 in human hepatocytes; format: ADME, cell-based, Hepatocyte
T1 sequence (P08684 whole entry): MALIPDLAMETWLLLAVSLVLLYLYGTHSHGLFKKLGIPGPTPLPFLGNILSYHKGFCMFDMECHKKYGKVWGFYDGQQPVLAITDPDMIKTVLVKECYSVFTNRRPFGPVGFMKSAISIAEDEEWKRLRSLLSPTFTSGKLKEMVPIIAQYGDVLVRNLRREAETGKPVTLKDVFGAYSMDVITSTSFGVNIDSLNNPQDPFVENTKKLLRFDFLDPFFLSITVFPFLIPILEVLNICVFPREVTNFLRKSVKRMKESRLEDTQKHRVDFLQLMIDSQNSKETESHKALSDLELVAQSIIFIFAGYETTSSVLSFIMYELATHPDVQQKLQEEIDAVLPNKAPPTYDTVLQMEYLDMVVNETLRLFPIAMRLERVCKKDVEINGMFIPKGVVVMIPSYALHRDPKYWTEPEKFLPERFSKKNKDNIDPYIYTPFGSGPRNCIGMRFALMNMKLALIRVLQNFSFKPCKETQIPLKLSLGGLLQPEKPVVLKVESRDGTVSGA

CYP3A4 [2] = target: T1, CYP3A4; test: Induction of CYP3A4 in human hepatocytes assessed as maximum efficacy relative to control
D(1A) dopamine receptor = D(1A) dopamine receptor (Homo sapiens, UniProt P21728); test: Positive allosteric modulation of human D1 receptor in HEK293 cells assessed as increase in cyclic AMP production measured after 60 mins in presence of dopamine by HTRF assay; format: cell-based
D(1A) dopamine receptor, sequence (P21728 whole entry): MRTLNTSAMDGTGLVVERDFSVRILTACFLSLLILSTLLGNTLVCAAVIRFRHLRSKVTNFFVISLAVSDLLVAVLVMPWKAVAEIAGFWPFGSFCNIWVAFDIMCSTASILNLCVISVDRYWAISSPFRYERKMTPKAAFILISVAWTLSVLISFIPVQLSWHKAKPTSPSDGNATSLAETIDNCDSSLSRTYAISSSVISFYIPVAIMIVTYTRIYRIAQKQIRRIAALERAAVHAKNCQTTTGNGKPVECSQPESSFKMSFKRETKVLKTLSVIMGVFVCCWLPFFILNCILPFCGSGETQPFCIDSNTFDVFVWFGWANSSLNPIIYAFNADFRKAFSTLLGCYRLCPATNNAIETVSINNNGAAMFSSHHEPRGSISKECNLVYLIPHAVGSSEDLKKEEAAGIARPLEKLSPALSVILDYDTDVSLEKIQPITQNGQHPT

[3] = Solubility of compound at pH 6 by HTSA assay; format: physicochemical; conditions: buffer

Question: Which Fm (Cytochrome P450) does the source give for C[C@H]1c2cccc(CCC(C)(C)O)c2C[C@H](CO)N1C(=O)Cc1c(Cl)cccc1Cl here?
Answer: The Fm was 0.6.

Question: What about the EC50 (CYP3A4 [1]) of the same compound?
Answer: Its EC50 is 5500 nM.

Question: What about the Emax (CYP3A4 [2]) of the same compound?
Answer: Its Emax is 42%.

Question: Which EC50 (D(1A) dopamine receptor) does the source give for C[C@H]1c2cccc(-c3cn[nH]c3)c2C[C@H](CO)N1C(=O)Cc1c(Cl)cccc1Cl here?
Answer: The EC50 was 6.41 nM.

Question: What about the solubility [3] of the same compound?
Answer: The solubility was 27 µg/mL (≈ 62.7 µM).

Question: Which results are given for C[C@H]1c2cccc(-c3cnn(C4CC4)c3)c2C[C@H](CO)N1C(=O)Cc1c(Cl)cccc1Cl?
Answer: EC50 (D(1A) dopamine receptor): 10.3 nM; solubility [3]: 2 µg/mL (≈ 4.25 µM)

Question: For CCn1cc(-c2cccc3c2C[C@H](CO)N(C(=O)Cc2c(Cl)cccc2Cl)[C@H]3C)cn1, which EC50 (D(1A) dopamine receptor) is on record?
Answer: Its EC50 is 15.9 nM.

Question: And the solubility [3]?
Answer: Its solubility is 12 µg/mL (≈ 26.2 µM).

Question: For C[C@H]1c2cccc(-c3cnn(C4COC4)c3)c2C[C@H](CO)N1C(=O)Cc1c(Cl)cccc1Cl, which solubility [3] is on record?
Answer: Its solubility is 35 µg/mL (≈ 72 µM).
